Data published in patent US20210278408A1, “METHODS OF TREATMENT OF CANCER WITH SUBSTITUTED PYRROLE AND PYRAZOLE COMPOUNDS AND DIAGNOSIS OF CANCERS SUSCEPTIBLE TO TREATMENT WITH SUBSTITUTED PYRROLE AND PYRAZOLE COMPOUNDS” (Bantam Pharmaceutical, LLC, priority 2018, published 2021).
Like-named read-outs stand apart in the source and are kept apart here.

Assays:
HK-2 = assay: Anti-proliferative activity, CellTiter-Glo, 72 hours: HK-2; type: cell-based, human; conditions: Homo sapiens, HK-2 (kidney epilithial), Cell-Titre-Glo
Protocol: (§1) Anti-proliferative activity of BTM compounds. The anti-proliferative activities of Compound A197 and Compound B19 were compared to 4EGI-1 (a known cancer cell growth inhibitor) in a panel of 99 tumor lines. Methods: A panel of 96 tumor and 3 normal cell lines were tested for sensitivity to the test compound. The cell lines were cultured in standard media and pipetted into 96-well plates at the required plating densities. The cells were acclimated for 24 hours prior to compound testing. Compound was prepared as a stock of 20 mM in DMSO. To prepare dose response curves compound was serially diluted in DMSO and dispensed into the plate wells using a Tecan D300e digital dispenser. The final DMSO concentration was 0.15%. After 72 hours of incubation cell number was determined using the CellTiter-Glo® protocol according to the manufacturers instructions (Promega). In this assay, ATP is measured as a surrogate of cell number. The activity of the compound is determined by comparing untreated cells with treated cells and calculating the % of signal retained. Compound activity is measured as an EC50 of maximum level of efficacy and the two are used to compute an activity area. The table below provides a comparison of activity in a data sample.

SU-DHL-6 = assay: Anti-proliferative activity, CellTiter-Glo, 72 hours: SU-DHL-6; type: cell-based, human; conditions: Homo sapiens, SU-DHL-6 (B-cell lymphoma), Cell-Titre-Glo
Protocol: as §1

HT-1080 = assay: Anti-proliferative activity, CellTiter-Glo, 72 hours: HT-1080; type: cell-based, human; conditions: Homo sapiens, HT-1080 (fibrosarcoma), Cell-Titre-Glo
Protocol: as §1

[1] = Single rising-dose mouse pharmacokinetics (PK) experiment; type: in vivo, CD-1 mice; conditions: for PK properties: mouse PK data
Protocol: FIG. 9 is a graph of mouse pharmacokinetics of a single rising dose PK of Compound A197 in female CD-1 mice. Compound was administered orally with the indicated dose. Blood was drawn by tail-bleed at the appropriate times and Compound A197 plasma levels determined by LC-MS. All values, mean±SD (n=3 mice per group).
A single rising-dose mouse pharmacokinetics (PK) experiment was performed at PGP-52 TI 10, 20, 40, 150 and 300 mg/kg Compound A197. Female CD-1 mice (20-30 grams in weight) were dosed by oral gavage or by intravenous injection with A197 dissolved in 1% NMP, 0.3% Tween-80 in 0.5% methylcellulose at a dose volume of 10 ml/kg. Following compound dosing, blood was collected by tail vein bleed into K2EDTA tubes at 30 minutes, 1, 3, 5, 7, 24 an 48 hrs following dosing. Plasma (5 μL) from A197 dosed animals was acidified with […] and 1% ammonium formate in methanol to precipitate protein and delipidate plasma. The material was centrifuged at 1000× and a 120 μL sample of the supernatant was then dried under vacuum. The deproteinated and delipidated residue was resuspended in 200 μL of 1% ammonium formate in methanol and the centrifugation and drying process repeated. The dried material is then resuspended in 100 μL of a mixture of 2 parts methanol: 1 part acetonitrile: 1 part water. A 10 μL sample of this material is then injected onto a Xbridge C18 2.5 μM, 3×30 mm, XP column attached to a TSQ Vantage LC/MS system for quantitation.

SU-DHL-10 = assay: Anti-proliferative activity, CellTiter-Glo, 72 hours: SU-DHL-10; type: cell-based, human; conditions: Homo sapiens, SU-DHL10, SU-DHL-10 (B-cell lymphoma), Cell-Titre-Glo
Protocol: as §1

MIA PaCa-2 = assay: Anti-proliferative activity, CellTiter-Glo, 72 hours: MIA PaCa-2; type: cell-based, human; conditions: Homo sapiens, MIA PaCa-2 (pancreactic cancer (carcinoma)), Cell-Titre-Glo
Protocol: as §1

SK-MEL-28 = assay: Anti-proliferative activity, CellTiter-Glo, 72 hours: SK-MEL-28; type: cell-based, human; conditions: Homo sapiens, SK-MEL-28 (melanoma), Cell-Titre-Glo
Protocol: as §1

A549 = assay: Anti-proliferative activity, CellTiter-Glo, 72 hours: A549; type: cell-based, human; conditions: Homo sapiens, A549 (non-small cell lung cancer), Cell-Titre-Glo
Protocol: as §1

MDA-MB-231 = assay: Anti-proliferative activity, CellTiter-Glo, 72 hours: MDA-MB-231; type: cell-based, human; conditions: Homo sapiens, MDA-MB-231 (breast cancer), Cell-Titre-Glo
Protocol: as §1

[2] = test system: panel of 96 tumor and 3 normal cell lines; assay: Anti-proliferative activity in a panel of 99 cell lines, CellTiter-Glo, 72 hours; type: cell-based, human; conditions: for IC50: Homo sapiens, in responsive cell lines, read-out: activity range; for % of hematopoietic tumor lines being responsive / % of solid tumor lines being responsive: IC50<2 μM; for active in % of the tested cell lines (IC50<2 μM): all tested cell lines; for % of NSCLC tumor lines responsive / % of colorectal tumor lines responsive / % of sarcoma tumor lines responsive: among solid tumor lines; for activity in primary diploid cell lines: e.g. human umbilical vein endothelial cells and normal human lung fibroblasts (NHLF)
Protocol: as §1

SU-DHL-4 = assay: Anti-proliferative activity, CellTiter-Glo, 72 hours: SU-DHL-4; type: cell-based, human; conditions: Homo sapiens, SU-DHL-4 (B-cell lymphoma), Cell-Titre-Glo
Protocol: as §1

MDA-MB-157 = assay: Anti-proliferative activity, CellTiter-Glo, 72 hours: MDA-MB-157; type: cell-based, human; conditions: Homo sapiens, MDA-MB-157, 72 h
Protocol: as §1

KU812 = assay: Cell viability, CellTiter-Glo, 96 h: KU812; type: cell-based; conditions: for IC50: read-out: Absolute IC50
Protocol: (§2) Viability was determined by using the 50% inhibitory concentration (IC50) as determined with the CellTiter-Glo® Viability Assay (Promega). All cells were cultured under standard conditions in media supplemented with 10-15% Fetal Bovine Serum, at a temperature of 37° C., 5% CO2 and 95% humidity.
(§3) Cells were harvested during the logarithmic growth period, counted, and the cell concentration adjusted to 4.44×10^4 cells/mL using culture medium. A final cell density of 4×10^3 cells/well was added in a 90 μL cell suspension to plates A and B as shown.
(§4) Test plate B was incubated for 96 h in the humidified incubator at 37° C. with 5% CO2.
(§5) Following the incubation, the plate was equilibrated at room temperature for thirty minutes. CellTiter-Glo® (50 μL) was added to each well of the plate and contents mixed for five minutes on an orbital shaker to induce cell lysis. The luminescent signal was allowed to stabilize at room temperature for 20 minutes and the luminescence recorded.
(§6) IC50 (EC50) was calculated using a dose-response curve, fitted using a nonlinear regression model with a sigmoidal dose response. Survival rate was calculated using the formula:
(§7) The Surviving rate (%)=(LumTest article−LumMedium control)/(LumNon-treated−LumMedium control)×100%.
(§8) Absolute IC50 (EC50) was calculated according to the dose-response curve generated by the statistical software (GraphPad Prism 5.0).

JHH-6 = assay: Cell viability, CellTiter-Glo, 96 h: JHH-6; type: cell-based; conditions: for IC50: read-out: Absolute IC50
Protocol: as §2, §3, §4, §5, §6, §7, §8

| Structure (SMILES) | IC50 (HK-2) | IC50 (SU-DHL-6) | IC50 (HT-1080) | PK properties [1] | IC50 (SU-DHL-10) | IC50 (MIA PaCa-2) | IC50 (SK-MEL-28) | IC50 (A549) | IC50 (MDA-MB-231) | IC50 [2] | % of hematopoietic tumor lines being responsive [2] | % of solid tumor lines being responsive [2] | active in % of the tested cell lines (IC50<2 μM) [2] | % of NSCLC tumor lines responsive [2] | % of colorectal tumor lines responsive [2] | % of sarcoma tumor lines responsive [2] | activity in primary diploid cell lines [2] | IC50 (SU-DHL-4) | IC50 (MDA-MB-157) | % inhibition at top conc. (KU812) | other results |
| --- | --- | --- | --- | --- | --- | --- | --- | --- | --- | --- | --- | --- | --- | --- | --- | --- | --- | --- | --- | --- | --- |
| COC(=O)c1c(-c2cccc(F)c2)c(C)nn1-c1nc(C2=CCC(C(F)(F)F)CC2)c(SC(C)C)s1 (single isomer, unassigned) [Compound B19, methyl 4-(3-fluorophenyl)-1-(5-(isopropylthio)-4-(4-(trifluoromethyl)cyclohex-1-en-1-yl)thiazol-2-yl)-3-methyl-1H-pyrazole-5-carboxylate] | > 30000 nM | 538 nM | 528 nM | drug-like PK properties suitable for once daily dosing | 119 nM | 447 nM | > 30000 nM | 189 nM | > 30000 nM | 100 to 2000 nM | 90% | 28% | 40% | 80% | 37% | 40% | tested negative | 360 nM | > 30000 nM | – | – |
| N.N.[Cl][Pt][Cl] [Cisplatin, reference compound] | – | – | – | – | – | – | – | – | – | – | – | – | – | – | – | – | – | – | – | 99.20% | IC50 (KU812): 1950 nM; % inhibition at top conc. (JHH-6): 95.32%; IC50 (JHH-6): 3120 nM |
| Cc1nn(-c2nc(-c3ccc(C(F)(F)F)cc3)c(SC(C)C)s2)c(C(=O)O)c1-c1cccc(F)c1 [Compound A197, 4-(3-fluorophenyl)-1-(5-(isopropylthio)-4-(4-(trifluoromethyl)phenyl)thiazol-2-yl)-3-methyl-1H-pyrazole-5-carboxylic acid] | > 30000 nM | 521 nM | 725 nM | drug-like PK properties suitable for once daily dosing | 136 nM | 623 nM | > 30000 nM | 312 nM | > 30000 nM | 100 to 2000 nM | 90% | 28% | 40% | 80% | 37% | 40% | tested negative | 288 nM | > 30000 nM | 27.53% | IC50 (KU812; Homo sapiens): > 30000 nM; dose proportionality ([1]; single rising dose 10, 20, 40, 150 and 300 mg/kg, oral, female CD-1 mice, plasma by LC/MS): dose proportionality was observed up to 300 mg/kg; % inhibition at top conc. (JHH-6): 45.19%; IC50 (JHH-6): > 30000 nM |
